The values that follow are results of earlier work, collected in PMC4862687, “GPCRs Direct Germline Development and Somatic Gonad Function in Planarians” (PLoS Biology, 2016).

The test system of one data set is GnRH neuronal output. Also on record: method as in PMID 3131748, PMID 24221756. The settings on record: mammals and teleosts; ref [61],[62]; cited from earlier work.
For a further data set, the system named is pituitary-gonadal axis. The settings on record: intact rats; ref [55]; cited from earlier work. The text has this: (§1) NPF expression in Drosophila brain is sexually dimorphic and is believed to be centrally involved in mating behavior [52]. Also, NPF-deficient flies show a decrease in egg laying capacity, but the same effect is not observed in NPFR-1-deficient flies. […] Conversely, in intact rats, NPY has an inhibitory effect ...

For the next data set, the system named is secretion of LH and GnRH. To be noted: injection of NPY into sex steroid-primed ovariectomized rats; ref [53],[54]; cited from earlier work.
Text: as §1

neuropeptide Y [NPY]: in the data set with GnRH neuronal output, the GnRH neuronal output entry is reported as “positively modulates GnRH neuronal output”. The “effect on reproduction / pituitary-gonadal axis” value in the data set on pituitary-gonadal axis is on record as “inhibitory effect on reproduction by suppressing the pituitary-gonadal axis”. The “LH and GnRH secretion” value in the data set with secretion of LH and GnRH was “induces secretion of LH and GnRH”.
